For five molecules, Ki results are on record in publication doi:10.1101/2021.09.28.462122v1 (biorxiv, 2021).

This test deals with T1, AtGDH (Aspergillus terreus NADP+-specific glutamate dehydrogenase) (Aspergillus terreus, UniProt T2D1F5).
T1 sequence (T2D1F5 1-460): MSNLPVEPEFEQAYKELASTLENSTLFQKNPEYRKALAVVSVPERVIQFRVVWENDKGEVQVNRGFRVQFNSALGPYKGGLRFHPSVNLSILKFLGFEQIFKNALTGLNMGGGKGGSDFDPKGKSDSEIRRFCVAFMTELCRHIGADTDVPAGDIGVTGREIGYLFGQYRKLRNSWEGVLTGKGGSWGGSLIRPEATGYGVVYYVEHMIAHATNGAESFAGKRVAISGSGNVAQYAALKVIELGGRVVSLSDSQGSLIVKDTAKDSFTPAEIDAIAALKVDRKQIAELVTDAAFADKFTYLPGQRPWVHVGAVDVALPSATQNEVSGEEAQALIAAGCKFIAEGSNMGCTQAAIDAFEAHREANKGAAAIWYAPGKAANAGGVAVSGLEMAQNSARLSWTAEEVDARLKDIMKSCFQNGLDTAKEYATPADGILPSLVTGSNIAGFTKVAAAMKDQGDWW
The test is described as follows: NADPH oxidation at […] nm, reductive amination. The test is classed as biochemical.

SMILES strings stand for the structures.

Turning to `O=C(O)/C=C/C(=O)O` [fumarate], the affinity, expressed as Ki, was 23.2 mM.

`O=C(O)/C=C\C(=O)O` [maleate] showed a Ki of 36.2 mM.

In the case of `O=C(O)CC(=O)O` [malonate], the Ki turned out to be 19.5 mM.

The molecule `O=C(O)CCC(=O)O` [succinate] returned a Ki of 39.1 mM.

In the case of `O=C(O)C(O)C(O)C(=O)O` (centres unmarked) [tartrate], the Ki amounted to 50.8 mM.

For orientation: Ki means the dissociation constant of the complex between target and ligand, obtained from inhibition or displacement.
